# Target: T1, Collagenase from Clostridium histolyticum
# T1 construct: gene colG; ColG / ColH not distinguished
# Experiment: spectrophotometric FALGPA hydrolysis, […] nm
# Format: biochemical
# Settings: substrate FALGPA 0.8 mM; 50 mM tricine pH 7.5, 400 mM NaCl, 10 mM CaCl2; 15 min pre-incubation, room temperature
smiles,measurement,value
CC1(C)CC[C@]2(C(=O)O)CC[C@]3(C)C(=CC[C@@H]4[C@@]5(C)CC[C@H](O)C(C)(C)[C@@H]5CC[C@]43C)[C@@H]2C1 [oleanolic acid],Standard Oleanolic Acid *,25.66 ± 0.39 µg/mL

# Reference: PMC10221029, “Photoprotection and Antiaging Activity of Extracts from Honeybush (Cyclopia sp.)—In Vitro Wound Healing and Inhibition of the Skin Extracellular Matrix Enzymes: Tyrosinase, Collagenase, Elastase and Hyaluronidase” (Pharmaceutics, 2023)
